From PubChem BioAssay AID2179 (Vanderbilt High Throughput Screening Facility, 2009)
Calls of active or inactive are those of the source. No rule for the calls is given here.

Target: Metabotropic glutamate receptor 4 (Rattus norvegicus) (UniProt P31423)
Assay: PubChem AID 2179
Conditions: HEK/GIRK rat mGluR4, thallium flux, glutamate CRC fold-shift

Chain of Metabotropic glutamate receptor 4 (Rattus norvegicus) (P31423 whole entry, looked up): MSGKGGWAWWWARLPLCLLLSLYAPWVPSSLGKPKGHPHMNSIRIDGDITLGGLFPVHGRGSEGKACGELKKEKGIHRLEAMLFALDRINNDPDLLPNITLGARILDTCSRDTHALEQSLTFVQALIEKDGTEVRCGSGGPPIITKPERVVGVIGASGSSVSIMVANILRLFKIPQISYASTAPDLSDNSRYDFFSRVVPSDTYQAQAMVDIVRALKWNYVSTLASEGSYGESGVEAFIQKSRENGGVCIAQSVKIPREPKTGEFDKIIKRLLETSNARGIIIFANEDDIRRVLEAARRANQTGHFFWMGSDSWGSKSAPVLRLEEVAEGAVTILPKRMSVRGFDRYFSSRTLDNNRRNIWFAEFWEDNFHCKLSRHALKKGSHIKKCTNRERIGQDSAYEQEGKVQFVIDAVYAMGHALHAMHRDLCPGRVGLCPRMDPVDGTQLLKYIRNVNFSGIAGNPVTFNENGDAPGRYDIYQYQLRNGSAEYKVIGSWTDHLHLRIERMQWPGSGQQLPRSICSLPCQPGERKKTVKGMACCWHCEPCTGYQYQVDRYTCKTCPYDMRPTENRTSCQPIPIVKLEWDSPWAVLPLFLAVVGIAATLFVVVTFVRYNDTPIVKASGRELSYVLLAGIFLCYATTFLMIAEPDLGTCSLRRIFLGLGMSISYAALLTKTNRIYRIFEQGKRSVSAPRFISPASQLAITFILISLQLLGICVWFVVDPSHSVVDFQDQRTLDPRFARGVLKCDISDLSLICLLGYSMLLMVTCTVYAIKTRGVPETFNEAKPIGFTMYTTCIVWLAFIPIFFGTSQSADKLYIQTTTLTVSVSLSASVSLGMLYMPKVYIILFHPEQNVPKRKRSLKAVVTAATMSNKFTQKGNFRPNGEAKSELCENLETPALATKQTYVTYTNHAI

How did the glutamate EC50 in presence of 30 uM compound (lower = stronger potentiation) turn out when `O=C(Nc1ccc(Cl)c(C(F)(F)F)c1)c1ccccn1` was run?
Its glutamate EC50 in presence of 30 uM compound (lower = stronger potentiation) is 5820 nM (inactive).

`COc1cc(NC(=O)c2ccccn2)ccc1Cl` was tested. Which glutamate EC50 in presence of 30 uM compound (lower = stronger potentiation) did it give?
Its glutamate EC50 in presence of 30 uM compound (lower = stronger potentiation) is 307 nM.

For `COc1ccc(NC(=O)c2ccccn2)cc1Cl`, which glutamate EC50 in presence of 30 uM compound (lower = stronger potentiation) is on record?
Its glutamate EC50 in presence of 30 uM compound (lower = stronger potentiation) is 1180 nM.

For `O=C(Nc1ccc(F)c(C(F)(F)F)c1)c1ccccn1`, which glutamate EC50 in presence of 30 uM compound (lower = stronger potentiation) is on record?
Its glutamate EC50 in presence of 30 uM compound (lower = stronger potentiation) is 4010 nM (inactive).

`COc1cc(NC(=O)c2ccccn2)ccc1F` was tested. Which glutamate EC50 in presence of 30 uM compound (lower = stronger potentiation) did it give?
Its glutamate EC50 in presence of 30 uM compound (lower = stronger potentiation) is 409 nM.

For `O=C(Nc1cccc(Cl)c1)c1ccccn1`, which glutamate EC50 in presence of 30 uM compound (lower = stronger potentiation) is on record?
The glutamate EC50 in presence of 30 uM compound (lower = stronger potentiation) was 368 nM.

Which glutamate EC50 in presence of 30 uM compound (lower = stronger potentiation) does the source give for `COc1cc(NC(=O)c2ccccn2)ccc1C` here?
The glutamate EC50 in presence of 30 uM compound (lower = stronger potentiation) was 330 nM.
